Experimental data: patent publication US20250092080A1, “FLEX-NUCLEOSIDE ANALOGUES, NOVEL THERAPEUTICS AGAINST VIRUSES” (priority 2022, published 2025)
“And” between values parts separate entries of the source, which are not always exact repeats. Identical values can stand only once. Like-named read-outs stand apart in the source and are kept apart here.

What was measured:
Ebola Virus [1] = assay: microbe, parasite or virus in culture; type: cell-based, strain Zaire
Dengue Virus 4 = assay: DENV4 antiviral activity (Tables 11-15); type: cell-based
[2] = Cytotoxicity printed in the DENV4 lines (Tables 11-15); type: cell-based; conditions: cells not given
SARS-CoV-2 (Omicron) = SARS-CoV-2 (Omicron) (Calu3) #1 antiviral activity; type: cell-based; conditions: Severe acute respiratory syndrome coronavirus 2; Omicron strain in Calu-3 cells; lab #1
SARS-CoV-2 (WA-1) = assay: SARS-CoV-2 (WA)(A549) #1 antiviral activity; type: cell-based; conditions: Severe acute respiratory syndrome coronavirus 2; WA-1 strain in A549 cells; lab #1
SARS-CoV-2 = SARS-CoV-2 (A549) #2 antiviral activity; type: cell-based; conditions: Severe acute respiratory syndrome coronavirus 2, lab #2
Ebola Virus [3] = assay: microbe, parasite or virus in culture; type: cell-based; conditions: Zaire ebolavirus, Huh-7
in vitro [4] = conditions: human
in vitro [5] = conditions: human; remark: listed apart in the source
[6] = Cytotoxicity, A549 cells, lab #1; conditions: human
Dengue Virus 2 [7] = assay: DENV2 antiviral activity (Tables 11-15); type: cell-based; conditions: for IC50: DENV2
Huh7 cells = conditions: human
Chikungunya Virus = assay: CHIKV antiviral activity (Tables 11-15); type: cell-based
[8] = test system: Venezuelan Equine Encephalitis Virus; assay: microbe, parasite or virus in culture; type: cell-based
in vitro [9] = assay: in vitro
[10] = Cytotoxicity, A549, lab #2; conditions: human, A549 cells
[11] = Cytotoxicity printed in the CHIKV line (Table 11)
Epstein-Barr virus = assay: microbe, parasite or virus in culture; type: cell-based, strain Akata; conditions: human gammaherpesvirus 4, Akata
in vitro [12] = conditions: human; remark: listed apart in the source
SARS-CoV-2 (WA) = assay: SARS-CoV-2 (WA)(Calu3) antiviral activity; type: cell-based, WA strain; conditions: Severe acute respiratory syndrome coronavirus 2, Calu-3
[13] = Cytotoxicity, Calu3 (WA test); type: cell-based; conditions: human, Calu3 cells; Calu3 (WA lines)
Rubella Virus = Rubella Virus antiviral screening, A549; type: cell-based
[14] = Cell viability in A549 (parallel to Rubella screening); type: cell-based; conditions: human, A549 cells, RA-0001522
Rift Valley Fever Virus = assay: microbe, parasite or virus in culture; type: cell-based
in vitro [15] = assay: in vitro; remark: listed apart in the source
MERS Coronavirus = type: cell-based, strain EMC
Dengue Virus 2 [16] = assay: microbe, parasite or virus in culture; type: cell-based, strain New Guinea C; conditions: Huh-7
Enterovirus-71 = assay: organism not typed; type: cell-based

NC(=O)c1nc(F)c[nH]c1=O [Favipiravir, reference compound]
EC50 (Ebola Virus [1]; Zaire ebolavirus, Vero): 12 µM

COc1ncc(-c2cn([C@@H]3O[C@H](CO[P@@](=O)(N[C@@H](C)C(=O)OC(C)C)Oc4ccccc4)[C@H](O[P@@](=O)(N[C@@H](C)C(=O)OC(C)C)Oc4ccccc4)C3(C)F)cn2)c(OC)n1 (stereo partly shown) [CDW3-015]
IC50 (Dengue Virus 4; DENV4): 16 µM
IC90 (Dengue Virus 4; DENV4): 26 µM
CC50 [2]: > 100 µM
IC50 (SARS-CoV-2 (Omicron)): 19.7 µM
IC50 (SARS-CoV-2 (WA-1)): 12.4 µM
IC50 (SARS-CoV-2): 2.95 µM
IC50 (Ebola Virus [3]): 47 µM
CC50 (in vitro [4]): 1.74 µM
CC50 (in vitro [5]): > 200 µM
CC50 [6]: > 100 µM

COc1ncc(-c2cn([C@@H]3O[C@H](CO[P@@](=O)(N[C@@H](C)C(=O)OC(C)C)Oc4ccccc4)[C@H](O)C3(C)F)cn2)c(OC)n1 (stereo partly shown) [CDW3-007]
IC50 (Dengue Virus 2 [7]): 45 µM
IC50 (Dengue Virus 4; DENV4): > 50 µM
CC50 (Huh7 cells): > 200 µM
CC50 (in vitro [5]): 274 µM

CNc1cc(-c2cncn2[C@@H]2O[C@H](CO[P@@](=O)(N[C@@H](C)C(=O)OC(C)C)Oc3ccccc3)[C@H](O[P@@](=O)(N[C@@H](C)C(=O)OC(C)C)Oc3ccccc3)C2(C)F)nc(N)n1 (stereo partly shown) [CEM-034]
IC50 (Dengue Virus 2 [7]): 14 µM
IC50 (Dengue Virus 4; DENV4): 18 µM
IC50 (SARS-CoV-2 (Omicron)): 22.6 µM
IC50 (SARS-CoV-2 (WA-1)): 13.6 µM
IC50 (SARS-CoV-2): 6.47 µM
IC50 (Ebola Virus [3]): 13.5 µM
EC50 (Chikungunya Virus): 19.9 µM
EC50 [8]: 19.7 µM
CC50 (in vitro [4]): 35.4 µM
CC50 (in vitro [5]): 85 µM
CC50 (in vitro [9]): > 100 µM
CC50 [10]: 15.4 µM
CC50 [6]: 4.05 µM
CC50 [11]: > 100 µM

CCC(=O)OCCOCn1cnc(-c2cnc(OC)nc2)c1 [JT-093]
IC50 (Dengue Virus 2 [7]): 21 µM
IC50 (Dengue Virus 4; DENV4): > 50 µM

COc1ncc(-c2cn(COCCO)cn2)c(OC)n1 [JT-004]
EC90 (Epstein-Barr virus): > 100 µM
EC50 (Epstein-Barr virus; read-out: EC50): 86.8 µM
CC50 (in vitro [12]): > 100 µM

CCC(CC)COC(=O)[C@H](C)N[P@](=O)(OCCOCn1cncc1-c1cnc(OC)nc1OC)Oc1ccccc1 [JT-092]
IC50 (SARS-CoV-2 (WA-1)): 29.7 µM
IC90 (SARS-CoV-2 (WA-1)): 273 µM
IC50 (SARS-CoV-2 (WA)): 82.8 µM
IC90 (SARS-CoV-2 (WA)): 172 µM
CC50 [13]: > 100 µM
CC50 [6]: > 100 µM

COc1ncc(-c2cn(COCCOC(C)=O)cn2)c(OC)n1 [JT-006]
EC90 (Epstein-Barr virus): > 100 µM
EC50 (Epstein-Barr virus; read-out: EC50): 79.9 µM
CC50 (in vitro [12]): > 100 µM

CNc1nc(N)ncc1-c1cn([C@@H]2O[C@H](COP(=O)(NC(C)C(=O)OC(C)C)Oc3ccccc3)C(O)C2(C)F)cn1 (stereo in doubt) [CDW3-002, propan-2-yl-(2S)-2-(((((2R,3R,4R,5R)-5-(4-(2-amino-4-(methylamino)pyrimidin-5-yl)-1H-imidazol-1-yl)-4-fluoro-3-hydroxy-4-methyloxolan-2-yl)methyl)(phenyl)phosphono)amino) propanoate]
EC50 (Ebola Virus [1]; Zaire ebolavirus, Vero, read-out: EC50): 30 µM
IC50 (Rubella Virus): 69.9 µM
IC90 (Rubella Virus): > 100 µM
CC50 [14]: 97.2 µM
IC50 (Rift Valley Fever Virus): 74.9 µM
IC90 (Rift Valley Fever Virus): > 100 µM
CC50 (in vitro [15]): > 100 µM

O=c1nc(NO)ccn1[C@@H]1O[C@H](CO)[C@@H](O)[C@H]1O [EIDD-1931]
EC50 (MERS Coronavirus): 0.036 µg/mL and 0.034 µg/mL

Nc1ccn(C[C@@H](CO)OCP(=O)(O)O)c(=O)n1 [Cidofovir, reference compound]
EC50 (Epstein-Barr virus): 3.92 µM
EC90 (Epstein-Barr virus): 71.4 µM
CC50 (in vitro [12]): > 100 µM

Nc1nc(=O)n([C@@H]2C[C@@H](O)[C@H](CO)O2)cc1-c1ccco1 [CHK-05, 4-amino-5-(furan-2-yl)-1-((2S,4R,5S)-4-hydroxy-5-(hydroxymethyl)tetrahydrofuran-2-yl)pyrimidin-2(1H)-one]
EC50 (Epstein-Barr virus; read-out: EC50): 69.9 µM
EC50 (Dengue Virus 2 [16]): 79 µM
EC50 (Enterovirus-71): 24 µM

CCC(CC)COC(=O)[C@H](C)N[P@](=O)(OCCOCn1cncc1-c1cnc(N)nc1OC)Oc1ccccc1 [JT-096]
IC50 (Dengue Virus 2 [7]): > 28 µM
IC50 (Dengue Virus 4; DENV4): > 42 µM
IC50 (SARS-CoV-2 (WA-1)): 10.5 µM
IC90 (SARS-CoV-2 (WA-1)): 46.3 µM
IC50 (SARS-CoV-2 (WA)): 31.4 µM
IC90 (SARS-CoV-2 (WA)): 106 µM
CC50 [13]: > 100 µM
IC50 (Ebola Virus [3]): 52 µM
CC50 (in vitro [5]): 28 µM
CC50 [6]: 73.3 µM

CCC(CC)COC(=O)[C@H](C)NP(=O)(OCCOCn1cnc(-c2cnc(OC)nc2OC)c1)Oc1ccccc1 (stereo partly shown) [JT-005]
EC50 (Ebola Virus [1]; read-out: EC50): 12 µM
CC50 (Vero): > 100 µM

COc1nc(N)ncc1-c1cn(COCCO)cn1 [JT-001]
EC90 (Epstein-Barr virus): > 100 µM
EC50 (Epstein-Barr virus; read-out: EC50): 59.9 µM
CC50 (in vitro [12]): > 100 µM

CC(C)OC(=O)[C@H](C)N[P@](=O)(OC[C@H]1O[C@@H](n2cnc(-c3cnc(N)nc3)c2)C(C)(F)[C@H]1O)Oc1ccccc1 (stereo partly shown) [CDW3-014]
inhibition at 50 µM (Dengue Virus 2 [7]; DENV2, read-out: % inhib): 13.6%
inhibition at 50 µM (Dengue Virus 4; DENV4, read-out: % inhib): 27%
IC50 (Ebola Virus [3]): 10.5 µM
CC50 (in vitro [5]): 33.4 µM

Cc1ccc(-c2cn([C@@H]3C[C@@H](O)[C@H](CO)O3)c(=O)[nH]c2=O)s1 [CHK-03, 1-((2S,4R,5S)-4-hydroxy-5-(hydroxymethyl)tetrahydrofuran-2-yl)-5-(5-methylthiophen-2-yl)pyrimidine-2,4(1H,3H)-dione]
EC90 (Epstein-Barr virus): 18.7 µM
EC50 (Epstein-Barr virus; read-out: EC50): 2.97 µM
CC50 (in vitro [12]): > 100 µM
